Assay results published in patent publication US10030047B2 (Hoffmann-La Roche Inc., priority 2015, dated 2018).
Values after ≈ are worked out from the molar mass of the structure shown.

Test system: A. baumannii strain ATCC19606
Test: Minimum inhibitory concentration (MIC) determination, microbroth dilution (CLSI)
Type: cell-based
Conditions: Acinetobacter baumannii; A. baumannii ATCC19606; CAMHB; read after 20 hours; >=80% growth inhibition; read-out: ATCC19606 MIC
In short: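 CLSI broth microdilution in cation-adjusted Mueller Hinton broth with twofold compound dilutions and ~5×10^5 CFU/ml inoculum, incubated at 35±2 °C. MIC read after 20 h as lowest concentration inhibiting ≥80% of growth, by eye and OD 600 nm.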

Compound	MIC [µg/mL]
NCCCC[C@@H]1NC(=O)[C@H](CCCN)NCc2cccnc2Sc2c(Cl)ccc(Cl)c2CNC(=O)[C@H](Cc2c[nH]c3ccccc23)NC1=O [Example 82, (11S,14S,17S)-14-(4-Amino-butyl)-11-(3-amino-propyl)-22,25-dichloro-17-(1H-indol-3-ylmethyl)-2-thia-4,10,13,16,19-pentaaza-tricyclo[19.4.0.0*3,8*]pentacosa-1(25),3(8),4,6,21,23-hexaene-12,15,18-trione]	4 (≈ 5.51 µM)
CCN1C(=O)[C@H](CCCCN)NC(=O)[C@H](CCCN)NCc2cccnc2Sc2c(C)cc(Br)cc2CNC(=O)[C@@H]1Cc1c[nH]c2ccccc12 [Example 84, (11S,14S,17S)-14-(4-Amino-butyl)-11-(3-amino-propyl)-23-bromo-16-ethyl-17-(1H-indol-3-ylmethyl)-25-methyl-2-thia-4,10,13,16,19-pentaaza-tricyclo[19.4.0.0*3,8*]pentacosa-1(25),3(8),4,6,21,23-hexaene-12,15,18-trione]	0.12 (≈ 0.154 µM)
CN1C(=O)[C@H](CCCCN)NC(=O)[C@H](Cc2cncn2C)NCc2cccnc2Sc2c(Cl)cc(C(F)(F)F)cc2CNC(=O)[C@@H]1Cc1c[nH]c2ccccc12 [Example 85, (11S,14S,17S)-14-(4-Amino-butyl)-25-chloro-17-(1H-indol-3-ylmethyl)-16-methyl-11-(3-methyl-3H-imidazol-4-ylmethyl)-23-trifluoromethyl-2-thia-4,10,13,16,19-pentaaza-tricyclo[19.4.0.0*3,8*]pentacosa-1(25),3(8),4,6,21,23-hexaene-12,15,18-trione]	0.5 (≈ 0.617 µM)
CN1C(=O)[C@H](CCCCN)NC(=O)[C@H](Cc2cccnc2)NCc2cccnc2Sc2c(Cl)cc(C(F)(F)F)cc2CNC(=O)[C@@H]1Cc1c[nH]c2ccccc12 [Example 86, (11S,14S,17S)-14-(4-Amino-butyl)-25-chloro-17-(1H-indol-3-ylmethyl)-16-methyl-11-pyridin-3-ylmethyl-23-trifluoromethyl-2-thia-4,10,13,16,19-pentaaza-tricyclo[19.4.0.0*3,8*]pentacosa-1(25),3(8),4,6,21,23-hexaene-12,15,18-trione]	16 (≈ 19.8 µM)
CN1C(=O)[C@H](CCCCN)NC(=O)[C@H](CCCN)NCc2cccnc2Sc2c(cc(-c3ccccc3)cc2C(F)(F)F)CNC(=O)[C@@H]1Cc1c[nH]c2ccccc12 [Example 87, (11S,14S,17S)-14-(4-Amino-butyl)-11-(3-amino-propyl)-17-(1H-indol-3-ylmethyl)-16-methyl-23-phenyl-25-trifluoromethyl-2-thia-4,10,13,16,19-pentaaza-tricyclo[19.4.0.0*3,8*]pentacosa-1(25),3,5,7,21,23-hexaene-12,15,18-trione]	8 (≈ 9.82 µM)
CN1C(=O)[C@H](CCCCN)NC(=O)[C@H](CCCN)NCc2cccnc2Sc2c(cc(Br)cc2C(F)(F)F)CNC(=O)[C@@H]1Cc1c[nH]c2ccccc12 [Example 88, (11S,14S,17S)-14-(4-Amino-butyl)-11-(3-amino-propyl)-23-bromo-17-(1H-indol-3-ylmethyl)-16-methyl-25-trifluoromethyl-2-thia-4,10,13,16,19-pentaaza-tricyclo[19.4.0.0*3,8*]pentacosa-1(25),3,5,7,21,23-hexaene-12,15,18-trione]	0.25 (≈ 0.306 µM)
CN1C(=O)[C@H](CCCCN)NC(=O)[C@H](CCCN)NCc2cccnc2Sc2c(Cl)ccc(Br)c2CNC(=O)[C@@H]1Cc1c[nH]c2ccccc12 [Example 90, (11S,14S,17S)-14-(4-Amino-butyl)-11-(3-amino-propyl)-22-bromo-25-chloro-17-(1H-indol-3-ylmethyl)-16-methyl-2-thia-4,10,13,16,19-pentaaza-tricyclo[19.4.0.0*3,8*]pentacosa-1(25),3,5,7,21,23-hexaene-12,15,18-trione]	0.25 (≈ 0.319 µM)
CN1C(=O)[C@H](CCCCN)NC(=O)[C@H](CCCN)NCc2cccnc2Sc2c(cc(C(F)(F)F)cc2C(F)(F)F)CNC(=O)[C@@H]1Cc1c[nH]c2ccccc12 [Example 91, (11S,14S,17S)-14-(4-Amino-butyl)-11-(3-amino-propyl)-17-(1H-indol-3-ylmethyl)-16-methyl-23,25-bis-trifluoromethyl-2-thia-4,10,13,16,19-pentaaza-tricyclo[19.4.0.0*3,8*]pentacosa-1(25),3,5,7,21,23-hexaene-12,15,18-trione]	0.5 (≈ 0.62 µM)
CN1C(=O)[C@H](CCCCN)NC(=O)[C@H](CCCN)NCc2cccnc2Sc2c(Cl)cc(N3CCOCC3)cc2CNC(=O)[C@@H]1Cc1c[nH]c2ccccc12 [Example 92, (11S,14S,17S)-14-(4-Amino-butyl)-11-(3-amino-propyl)-25-chloro-17-(1H-indol-3-ylmethyl)-16-methyl-23-morpholin-4-yl-2-thia-4,10,13,16,19-pentaaza-tricyclo[19.4.0.0*3,8*]pentacosa-1(25),3,5,7,21,23-hexaene-12,15,18-trione]	0.5 (≈ 0.633 µM)
CN1C(=O)[C@H](CCCCN)NC(=O)[C@H](CCCN)NCc2nccnc2Sc2c(Cl)cc(C(F)(F)F)cc2CNC(=O)[C@@H]1Cc1c[nH]c2ccccc12 [Example 97, (11S,14S,17S)-14-(4-Amino-butyl)-11-(3-amino-propyl)-25-chloro-17-(1H-indol-3-ylmethyl)-16-methyl-23-trifluoromethyl-2-thia-4,7,10,13,16,19-hexaaza-tricyclo[19.4.0.0*3,8*]pentacosa-1(21),3,5,7,22,24-hexaene-12,15,18-trione]	0.12 (≈ 0.155 µM)
CN1C(=O)[C@H](CCCCN)NC(=O)[C@H](CCCN)NCc2nccnc2Sc2c(Cl)ccc(C(F)(F)F)c2CNC(=O)[C@@H]1Cc1c[nH]c2ccccc12 [Example 98, (11S,14S,17S)-14-(4-Amino-butyl)-11-(3-amino-propyl)-25-chloro-17-(1H-indol-3-ylmethyl)-16-methyl-22-trifluoromethyl-2-thia-4,7,10,13,16,19-hexaaza-tricyclo[19.4.0.0*3,8*]pentacosa-1(21),3,5,7,22,24-hexaene-12,15,18-trione]	0.12 (≈ 0.155 µM)
CN1C(=O)[C@H](CCCCN)NC(=O)[C@H](CCCN)NCc2cccnc2Sc2c(Cl)cc(-c3cccnc3)cc2CNC(=O)[C@@H]1Cc1c[nH]c2ccccc12 [Example 99, (11S,14S,17S)-14-(4-Amino-butyl)-11-(3-amino-propyl)-25-chloro-17-(1H-indol-3-ylmethyl)-16-methyl-23-pyridin-3-yl-2-thia-4,10,13,16,19-pentaaza-tricyclo[19.4.0.0*3,8*]pentacosa-1(25),3,5,7,21,23-hexaene-12,15,18-trione]	4 (≈ 5.11 µM)
CN1C(=O)[C@H](CCCCN)NC(=O)[C@H](CCCN)NCc2cccnc2Sc2c(Cl)cc(-c3ccncc3)cc2CNC(=O)[C@@H]1Cc1c[nH]c2ccccc12 [Example 100, (11S,14S,17S)-14-(4-Amino-butyl)-11-(3-amino-propyl)-25-chloro-17-(1H-indol-3-ylmethyl)-16-methyl-23-pyridin-4-yl-2-thia-4,10,13,16,19-pentaaza-tricyclo[19.4.0.0*3,8*]pentacosa-1(25),3,5,7,21,23-hexaene-12,15,18-trione]	2 (≈ 2.56 µM)

More lines, now with the values ahead:

MIC [µg/mL]	Compound
1 (≈ 1.38 µM)	NCCCC[C@@H]1NC(=O)[C@H](CCCN)NCc2cccnc2Sc2c(Cl)cc(Cl)cc2CNC(=O)[C@H](Cc2c[nH]c3ccccc23)NC1=O [Example 81, (11S,14S,17S)-14-(4-Amino-butyl)-11-(3-amino-propyl)-23,25-dichloro-17-(1H-indol-3-ylmethyl)-2-thia-4,10,13,16,19-pentaaza-tricyclo[19.4.0.0*3,8*1]pentacosa-1(25),3(8),4,6,21,23-hexaene-12,15,18-trione]
0.12 (≈ 0.153 µM)	CN1C(=O)[C@H](CCCCN)NC(=O)[C@H](CCCN)NCc2cccnc2Sc2c(Cl)cc(Br)cc2CNC(=O)[C@@H]1Cc1c[nH]c2ccccc12 [Example 89, (11S,14S,17S)-14-(4-Amino-butyl)-11-(3-amino-propyl)-23-bromo-25-chloro-17-(1H-indol-3-ylmethyl)-16-methyl-2-thia-4,10,13,16,19-pentaaza-tricyclo[19.4.0.0*3,8*]pentacosa-1(25),3,5,7,21,23-hexaene-12,15,18-trione]
16 (≈ 23.4 µM)	CN1C(=O)[C@H](CCCCN)NC(=O)CNCc2cccnc2Sc2c(Cl)cc(Cl)cc2CNC(=O)[C@@H]1Cc1c[nH]c2ccccc12 [Example 93, (14S,17S)-14-(4-Amino-butyl)-23,25-dichloro-17-(1H-indol-3-ylmethyl)-16-methyl-2-thia-4,10,13,16,19-pentaaza-tricyclo[19.4.0.0*3,8*]pentacosa-1(25),3,5,7,21,23-hexaene-12,15,18-trione]
1 (≈ 1.44 µM)	C[C@@H]1NCc2cccnc2Sc2c(Cl)cc(Cl)cc2CNC(=O)[C@H](Cc2c[nH]c3ccccc23)N(C)C(=O)[C@H](CCCCN)NC1=O [Example 94, (11S,14S,17S)-14-(4-Amino-butyl)-23,25-dichloro-17-(1H-indol-3-ylmethyl)-11,16-dimethyl-2-thia-4,10,13,16,19-pentaaza-tricyclo[19.4.0.0*3,8*]pentacosa-1(25),3,5,7,21,23-hexaene-12,15,18-trione]
8 (≈ 11 µM)	CC(C)[C@@H]1NCc2cccnc2Sc2c(Cl)cc(Cl)cc2CNC(=O)[C@H](Cc2c[nH]c3ccccc23)N(C)C(=O)[C@H](CCCCN)NC1=O [Example 95, (11S,14S,17S)-14-(4-Amino-butyl)-23,25-dichloro-17-(1H-indol-3-ylmethyl)-11-isopropyl-16-methyl-2-thia-4,10,13,16,19-pentaaza-tricyclo[19.4.0.0*3,8*]pentacosa-1(25),3,5,7,21,23-hexaene-12,15,18-trione]
4 (≈ 5.61 µM)	CN1C(=O)[C@H](CCCCN)NC(=O)[C@H](CO)NCc2cccnc2Sc2c(Cl)cc(Cl)cc2CNC(=O)[C@@H]1Cc1c[nH]c2ccccc12 [Example 96, (11S,14S,17S)-14-(4-Amino-butyl)-23,25-dichloro-11-hydroxymethyl-17-(1H-indol-3-ylmethyl)-16-methyl-2-thia-4,10,13,16,19-pentaaza-tricyclo[19.4.0.0*3,8*]pentacosa-1(25),3,5,7,21,23-hexaene-12,15,18-trione]
